According to patent publication US20240277606A1, “METHODS FOR THE PULSED DELIVERY OF BIOACTIVE AGENTS” (University of Mississippi, priority 2021, published 2024):

Key:
5HT2A receptor = biological target: T1, 5HT2A receptor (Homo sapiens, UniProt P28223); experiment: In vitro bioactivity: calcium flux (Fluo-8) in 5HT2A serotonin receptor cells; type: cell-based; conditions: 5 μM, 1 hr treatment, versus PBS control
T1 construct: host or cells: Chem-1 cells (parental control HTSCHEM-1RTA)
Experimental: Briefly, 5HT2A serotonin receptor cells (Millipore Sigma, HTS082RTA) and chem-1 parental control cells (Millipore Sigma, HTSCHEM-1RTA) were seeded in 96 well plates (5000 cells-100 μl/well of 50,000 cells/ml solution) and allowed to adhere overnight. […] After 1 hr, Fluo-8 green dye solution (Abcam, ab112129) was added to the cells, incubated 30 min at 37° C., and then incubated for 30 minutes at room temperature, followed by fluorescence measurements on a microplate reader.

[1] = In vitro release from single-layered CAPP films; type: physicochemical; conditions: for release rate compared with Rhodamine dye: from 0.1 mm thick CAPP films
Experimental: Next, drug release from single-layered CAPP films of 0.1, 0.2, 0.3, and 0.4 mm thickness was quantified. Drug release was measured by encapsulating Rhodamine fluorescent dye within the films and closely matched the erosion times reported above. Complete release from 0.1 mm thick films occurred after ˜18 hrs (FIG. 4A). Complete release from 0.2 mm thick films occurred after ˜36 hrs (FIG. 4A). Complete release from 0.3 mm thick films occurred after ˜60 hrs (FIG. 4A). Complete release from 0.4 mm thick films occurred after ˜78 hrs (FIG. 4A). Importantly, release of 5HT2A agonists from 0.1 mm thick CAPP films was also measured, since 0.1 mm thick films are used to encapsulate drug in the multilayered films.

[2] = Pulsed delivery of DOI from subcutaneously implanted multilayer CAPP films coated with PSA; type: in vivo; conditions: seven-layer CAPP film, subcutaneous
Excerpt: The multilayered CAPP films used for this study had seven layers, where layers 1, 4, and 7 were DOI-loaded 0.1 mm thick CAPP films at 70:30 CAP:P ratio and layers 2, 3, 5, and 6 were unloaded (Blank) 0.4 mm thick CAPP films at 90:10 CAP:P ratio. The layered devices were then coated on all sides but one (the top of layer 1) with the biocompatible polymer polysebacic acid (PSA). After implantation, the anticipated pulsed release schedule of DOI was observed, with three distinct DOI pulses where peak concentrations in the plasma occurred at ˜2, 12, and 24 hrs post-implantation.

[3] = Pilot pharmacokinetics of DOI from subcutaneously implanted 0.1 mm CAPP films; type: in vivo; conditions: DOI-loaded 0.1 mm CAPP film, subcutaneous, CD-1 mice
Excerpt: Single-layered films loaded with DOI and blank single-layered films have been constructed. These films were sterilized and implanted subcutaneously in the dorsal flap of CD-1 mice in an initial pilot experiment. This pilot experiment enabled optimization of blood collection time points, ensure the ability to detect DOI with current bioanalytical techniques, and will inform the design of the rest of the in vivo studies. Briefly, films were implanted subcutaneously followed by blood and organ collection at 8, 16, and 24 hrs to monitor blood pharmacokinetics of DOI released from the 0.1 mm thick CAPP films in vivo. […] The concentration of DOI in the blood of mice returned to baseline by 16 hrs and remained at baseline through 24 hrs. […] This pilot experiment was repeated to: 1) sample at earlier time points for better overall fidelity and 2) to also determine the concentration of DOI in major organs, particularly the brain. […] As expected based on the plasma pharmacokinetics, it was observed that the peak concentration of DOI in the brain, liver, and kidneys was ˜2-4 hrs (FIGS. 13C-13F). […] The release profile of the same dose of DOI from 0.4 mm thick films can also be measured, as can the release profile of DOI from multilayered CAPP films with three DOI-loaded 0.1 mm thick films separated by 0.4 mm thick blank films.

[4] = Follow-up plasma and organ pharmacokinetics of DOI from subcutaneously implanted 0.1 mm CAPP films; type: in vivo, CD-1 mice; conditions: post-implantation of 0.1 mm thick CAPP films, subcutaneous
Excerpt: Single-layered films loaded with DOI and blank single-layered films have been constructed. These films were sterilized and implanted subcutaneously in the dorsal flap of CD-1 mice in an initial pilot experiment. This pilot experiment enabled optimization of blood collection time points, ensure the ability to detect DOI with current bioanalytical techniques, and will inform the design of the rest of the in vivo studies. Briefly, films were implanted subcutaneously followed by blood and organ collection at 8, 16, and 24 hrs to monitor blood pharmacokinetics of DOI released from the 0.1 mm thick CAPP films in vivo. […] The concentration of DOI in the blood of mice returned to baseline by 16 hrs and remained at baseline through 24 hrs. […] This pilot experiment was repeated to: 1) sample at earlier time points for better overall fidelity and 2) to also determine the concentration of DOI in major organs, particularly the brain. […] As expected based on the plasma pharmacokinetics, it was observed that the peak concentration of DOI in the brain, liver, and kidneys was ˜2-4 hrs (FIGS. 13C-13F). DOI was cleared from the plasma as well as the brain, liver, and kidneys by ˜12 hrs post-implantation. The release profile of the same dose of DOI from 0.4 mm thick films can also be measured, as can the release profile of DOI from multilayered CAPP films with three DOI-loaded 0.1 mm thick films separated by 0.4 mm thick blank films.

[5] = In vitro release kinetics from multilayered CAPP films (Rhodamine as model drug); type: physicochemical
Excerpt: The layering strategy (i.e., alternating 0.1 mm and 0.4 mm films) was chosen based on the results in FIGS. 4A-4B showing that 0.1 mm films erode in ˜24 hrs while 0.4 mm films erode in ˜70-80 hrs. Additionally, each layer was engineered to degrade by either bulk or surface erosion based on the function of that particular layer. The drug-loaded, 0.1 mm thick layers should degrade via bulk erosion such that the drug is rapidly released from these layers in a bolus. However, the “blank” 0.4 mm layers should erode via surface erosion to ensure gradual degradation of the blank layer from “top-to-bottom” to maintain ordered pulses of release over time. Therefore, the absorption of water into polymeric films composed of a range of CAP:P ratios was examined, since bulk erosion occurs in materials where the rate of water absorption is greater than the degradation rate. By contrast, surface erosion occurs in materials where the rate of degradation is greater than the rate of water absorption into the material. […] Therefore, multilayered films with 0.1 mm drug-loaded layers composed of 70:30 (bulk-eroding) CAPP films and 0.4 mm blank layers composed of 90:10 (surface eroding) CAPP films were produced. Lastly, the erosion time for CAPP films of CAP:P ratios varying from 70:30-90:10 was examined to inform the construction of multilayer devices that are to be composed of both 70:30 and 90:10 CAPP films. […] As film thickness increases, erosion time of the films increases proportionally.
We constructed multilayer CAPP films of alternating 0.1 mm bulk eroding, drug-loaded layers and 0.4 mm surface eroding, blank layers and observed drug release kinetics from these films using Rhodamine as a model drug. […] However, in these preliminary results the third drug pulse is not obvious and the gaps between pulses have some variability. A new layering design was implemented to counter these shortcomings; including adding two “blank” layers between each drug-loaded film, as well as having “blank” layers on the bottom of the device to maintain device structure through the third drug pulse.

[6] = multilayer film, alternating 0.1 mm drug-loaded and 0.4 mm blank layers

T1 sequence (P28223 whole entry): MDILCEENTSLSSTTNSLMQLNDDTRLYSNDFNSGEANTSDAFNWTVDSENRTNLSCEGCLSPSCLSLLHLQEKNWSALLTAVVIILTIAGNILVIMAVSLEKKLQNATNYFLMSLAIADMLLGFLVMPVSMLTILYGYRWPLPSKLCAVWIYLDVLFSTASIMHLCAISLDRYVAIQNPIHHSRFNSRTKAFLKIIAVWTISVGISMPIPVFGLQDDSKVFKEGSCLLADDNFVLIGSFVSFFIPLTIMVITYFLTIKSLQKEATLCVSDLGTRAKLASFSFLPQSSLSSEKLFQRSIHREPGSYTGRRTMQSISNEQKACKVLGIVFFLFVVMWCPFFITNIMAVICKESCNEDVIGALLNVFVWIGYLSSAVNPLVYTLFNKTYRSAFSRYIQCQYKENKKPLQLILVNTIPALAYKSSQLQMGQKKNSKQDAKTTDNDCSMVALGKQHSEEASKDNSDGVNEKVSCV

## CCN(CC)C(=O)[C@@H]1C=C2c3cccc4c3c(cn4C(=O)C3CC3)C[C@H]2N(C)C1 [1cp-LSD, N1-(cyclopropylmethanoyl)-lysergic acid diethylamide]
5HT2A receptor
  calcium flux downstream of 5HT2A receptor activation: significant induction of calcium

## CC(=O)Oc1cccc2[nH]cc(CCN(C)C)c12 [4-acetoxy DMT, O-acetylpsilocin]
[1]
  release rate compared with Rhodamine dye: very similar rate

## COc1cc(CC(C)N)c(OC)cc1I (stereo not drawn) [DOI, 2,5-dimethoxy-4-iodoamphetamine]
[2]
  concentration profile in brain, liver, and kidneys: matched the pulsed profile of the blood plasma
[2]; post-implantation
  time of peak plasma concentration, first pulse: ~2 h
  time of peak plasma concentration, second pulse: ~12 h
  time of peak plasma concentration, third pulse: ~24 h
[1]
  release rate compared with Rhodamine dye: very similar rate
[3]; 8 hrs post-implantation
  detection in blood: consistently detected
[3]; remained at baseline through 24 hrs
  time at which blood concentration returned to baseline: ≤ 16 h
[4]
  time by which cleared from plasma, brain, liver, and kidneys: ~12 h
  time of peak concentration in brain, liver, and kidneys: 2 to 4 h
  time of peak concentration in plasma: 2 h
5HT2A receptor
  calcium flux downstream of 5HT2A receptor activation: significant induction of calcium

## CCN(CC)c1ccc2c(-c3ccccc3C(=O)O)c3ccc(=[N+](CC)CC)cc-3oc2c1 [Rhodamine, rhodamine B]
[1]; from 0.1 mm thick single-layered CAPP film
  time to complete release: ~18 h
[1]; from 0.2 mm thick single-layered CAPP film
  time to complete release: ~36 h
[1]; from 0.3 mm thick single-layered CAPP film
  time to complete release: ~60 h
[1]; from 0.4 mm thick single-layered CAPP film
  time to complete release: ~78 h
[5]; [6]
  time of peak of first drug pulse: 16 h
  time of peak of second drug pulse: 72 h
  time of peak of third drug pulse: ~120 h
[5]; second generation design, two blank layers between drug-loaded films and blank layers at bottom
  spacing between three intermittent drug pulses: ~70 h
